Assay results published in patent US20090018019A1, “INCREASING PATHOGEN DEFENCE IN PLANTS” (priority 2005, published 2009).

Assays:
Experiment in all cases: DNA chip expression analysis of barley leaves after soil treatment
Type in all cases: in vivo
Settings in all cases: 10 mg per plant to soil
[1] = system: HV_CEb0020C01r2_at INTEGUMENTARY MUCIN B.1
Procedure: (§1) Barley seeds (of the Baroness variety) were sown in pots containing soil about 2 cm deep (1250 g of sandy loam/per pot; the soil moisture content was adjusted to 70% of the maximum water-holding capacity) and cultivated in a climatized chamber under specified light, moisture and temperature conditions (15 h white light, 70% atmospheric humidity, 23-19° C. day/night).
(§2) 14 days after the emergence of the barley plants 10 mg of imidacloprid per plant, dissolved in 100 ml water, were applied by means of a pipette to the soil around the base of the shoot. The same volume of water without any active compound was applied to the control pots. After the soil treatment the plants were no longer watered. At various times after application (0.25; 1; 6; 8; 11; 13; 15; 16 and 17 days) the leaves were harvested, quick-frozen in liquid nitrogen and stored at −80° C. until further treatment.
(§3) The labelled RNA probes for the DNA chip hybridization were produced according to the protocols (Expression Analysis, Technical Manual) of the Affymetrix company (Affymetrix Inc., 3380 Central Expressway, Santa Clara, Calif., USA). Whole RNA was first of all isolated from in each case 500 mg of the harvested leaves. 10 μg portions of whole RNA were used for the first and second strand cDNA synthesis. The cDNA was amplified with T7 polymerase and simultaneously labelled with biotin-UTP. 20 μg portions of this biotinylated cDNA were used for the hybridization of the barley genome array (Barleyl Gene Chip, Item no: 511012) from Affymetrix. This DNA microarray contains DNA sequences of 22840 genes composed of a total of 400000 EST (Expressed Sequence Tag) sequences. Then the DNA microarrays were washed in the Affymetrix Fluidics Station, stained with streptavidin/phycoerythrin (Molecular Probes, P/N S-866) and scanned with the Affymetrix Gene Chip Scanner 3000. The fluorescence data obtained were analyzed with the Microarray Suite 5 software from Affymetrix and the Expressionist Pro software from the GeneData company. After a quality check, all of the DNA chip analyses were stored in a database. Since the Affymetrix Gene Chip System is based on measuring the absolute expression values of the genes contained in the chip, the expression values of the biological replicates of treated and non-treated plants were averaged after normalization (median calculation). With the aid of the statistical ANOVA method, those genes were identified whose expression was increased in the plants treated with imidacloprid but remained relatively constant in the untreated controls. The assembly of gene groups from specific metabolic pathways, signal transduction chains or functions was carried out by a keyword search through the gene annotations supplied by Affymetrix and by linking the genes to their corresponding Gene Ontology Annotations (Gene Ontology Consortium).

[2] = system: Contig639_at PATHOGENESIS-RELATED PROTEIN PRECURSOR
Procedure: as §1, §2, §3

[3] = system: Contig11773_at REGULATOR OF PAT[…]
Procedure: as §1, §2, §3

[4] = system: Contig2788_x_at THAUMATIN-LIKE PROTEIN TLP7
Procedure: as §1, §2, §3

[5] = system: Contig2550_x_at PATHOGENESIS-RELATED PROTEIN 4
Procedure: as §1, §2, §3

SMILES: O=[N+]([O-])/N=C1\NCCN1Cc1ccc(Cl)nc1 [imidacloprid]
- Induction factor = Expression (treated)/Expression (untreated) ([1]; 0.25 d): 1.4
- Median of the raw expression data, treated ([1]; 0.25 days): 96.81
- Induction factor = Expression (treated)/Expression (untreated) ([1]; 1 d): 0.9
- Median of the raw expression data, treated ([1]; 1 day): 87.44
- Induction factor = Expression (treated)/Expression (untreated) ([1]; 6 d): 4.3
- Median of the raw expression data, treated ([1]; 6 days): 418.12
- Induction factor = Expression (treated)/Expression (untreated) ([1]; 8 d): 2.8
- Median of the raw expression data, treated ([1]; 8 days): 428.35
- Induction factor = Expression (treated)/Expression (untreated) ([1]; 11 d): 2.2
- Median of the raw expression data, treated ([1]; 11 days): 389.74
- Induction factor = Expression (treated)/Expression (untreated) ([1]; 13 d): 1.7
- Median of the raw expression data, treated ([1]; 13 days): 180.00
- Induction factor = Expression (treated)/Expression (untreated) ([1]; 15 d): 1.0
- Median of the raw expression data, treated ([1]; 15 days): 170.35
- Induction factor = Expression (treated)/Expression (untreated) ([1]; 16 d): 1.2
- Median of the raw expression data, treated ([1]; 16 days): 161.77
- Induction factor = Expression (treated)/Expression (untreated) ([1]; 17 d): 0.6
- Median of the raw expression data, treated ([1]; 17 days): 106.72
- Induction factor = Expression (treated)/Expression (untreated) ([2]; 0.25 d): 0.7
- Median of the raw expression data, treated ([2]; 0.25 days): 157.66
- Induction factor = Expression (treated)/Expression (untreated) ([2]; 1 d): 0.3
- Median of the raw expression data, treated ([2]; 1 day): 38.68
- Induction factor = Expression (treated)/Expression (untreated) ([2]; 6 d): 8.6
- Median of the raw expression data, treated ([2]; 6 days): 2482.57
- Induction factor = Expression (treated)/Expression (untreated) ([2]; 8 d): 14.7
- Median of the raw expression data, treated ([2]; 8 days): 3944.01
- Induction factor = Expression (treated)/Expression (untreated) ([2]; 11 d): 8.9
- Median of the raw expression data, treated ([2]; 11 days): 4273.57
- Induction factor = Expression (treated)/Expression (untreated) ([2]; 13 d): 11.3
- Median of the raw expression data, treated ([2]; 13 days): 1496.21
- Induction factor = Expression (treated)/Expression (untreated) ([2]; 15 d): 2.9
- Median of the raw expression data, treated ([2]; 15 days): 920.86
- Induction factor = Expression (treated)/Expression (untreated) ([2]; 16 d): 4.4
- Median of the raw expression data, treated ([2]; 16 days): 1300.36
- Induction factor = Expression (treated)/Expression (untreated) ([2]; 17 d): 2.9
- Median of the raw expression data, treated ([2]; 17 days): 1196.37
- Induction factor = Expression (treated)/Expression (untreated) ([3]; 0.25 d): 0.9
- Median of the raw expression data, treated ([3]; 0.25 days): 175.49
- Induction factor = Expression (treated)/Expression (untreated) ([3]; 1 d): 0.4
- Median of the raw expression data, treated ([3]; 1 day): 70.99
- Induction factor = Expression (treated)/Expression (untreated) ([3]; 6 d): 7.8
- Median of the raw expression data, treated ([3]; 6 days): 1513.72
- Induction factor = Expression (treated)/Expression (untreated) ([3]; 8 d): 11.0
- Median of the raw expression data, treated ([3]; 8 days): 2102.86
- Induction factor = Expression (treated)/Expression (untreated) ([3]; 11 d): 7.4
- Median of the raw expression data, treated ([3]; 11 days): 1580.30
- Induction factor = Expression (treated)/Expression (untreated) ([3]; 13 d): 3.5
- Median of the raw expression data, treated ([3]; 13 days): 208.99
- Induction factor = Expression (treated)/Expression (untreated) ([3]; 15 d): 1.9
- Median of the raw expression data, treated ([3]; 15 days): 182.27
- Induction factor = Expression (treated)/Expression (untreated) ([3]; 16 d): 3.8
- Median of the raw expression data, treated ([3]; 16 days): 694.71
- Induction factor = Expression (treated)/Expression (untreated) ([3]; 17 d): 2.3
- Median of the raw expression data, treated ([3]; 17 days): 340.39
- Induction factor = Expression (treated)/Expression (untreated) ([4]; 0.25 d): 0.8
- Median of the raw expression data, treated ([4]; 0.25 days): 71.22
- Induction factor = Expression (treated)/Expression (untreated) ([4]; 1 d): 0.7
- Median of the raw expression data, treated ([4]; 1 day): 70.44
- Induction factor = Expression (treated)/Expression (untreated) ([4]; 6 d): 12.2
- Median of the raw expression data, treated ([4]; 6 days): 5432.88
- Induction factor = Expression (treated)/Expression (untreated) ([4]; 8 d): 8.0
- Median of the raw expression data, treated ([4]; 8 days): 7952.61
- Induction factor = Expression (treated)/Expression (untreated) ([4]; 11 d): 6.3
- Median of the raw expression data, treated ([4]; 11 days): 12190.31
- Induction factor = Expression (treated)/Expression (untreated) ([4]; 13 d): 2.3
- Median of the raw expression data, treated ([4]; 13 days): 4800.62
- Induction factor = Expression (treated)/Expression (untreated) ([4]; 15 d): 1.5
- Median of the raw expression data, treated ([4]; 15 days): 4880.14
- Induction factor = Expression (treated)/Expression (untreated) ([4]; 16 d): 2.5
- Median of the raw expression data, treated ([4]; 16 days): 1836.52
- Induction factor = Expression (treated)/Expression (untreated) ([4]; 17 d): 1.2
- Median of the raw expression data, treated ([4]; 17 days): 1166.53
- Induction factor = Expression (treated)/Expression (untreated) ([5]; 0.25 d): 0.8
- Median of the raw expression data, treated ([5]; 0.25 days): 68.63
- Induction factor = Expression (treated)/Expression (untreated) ([5]; 1 d): 0.7
- Median of the raw expression data, treated ([5]; 1 day): 54.66
- Induction factor = Expression (treated)/Expression (untreated) ([5]; 6 d): 5.8
- Median of the raw expression data, treated ([5]; 6 days): 716.14
- Induction factor = Expression (treated)/Expression (untreated) ([5]; 8 d): 7.4
- Median of the raw expression data, treated ([5]; 8 days): 1121.61
- Induction factor = Expression (treated)/Expression (untreated) ([5]; 11 d): 6.1
- Median of the raw expression data, treated ([5]; 11 days): 771.21
- Induction factor = Expression (treated)/Expression (untreated) ([5]; 13 d): 3.1
- Median of the raw expression data, treated ([5]; 13 days): 150.42
- Induction factor = Expression (treated)/Expression (untreated) ([5]; 15 d): 1.4
- Median of the raw expression data, treated ([5]; 15 days): 162.60
- Induction factor = Expression (treated)/Expression (untreated) ([5]; 16 d): 2.7
- Median of the raw expression data, treated ([5]; 16 days): 389.62
- Induction factor = Expression (treated)/Expression (untreated) ([5]; 17 d): 0.9
- Median of the raw expression data, treated ([5]; 17 days): 174.42
